From ChEMBL document CHEMBL1138653, “Screening of antimicrobial activity of diarylamines in the 2,3,5-trimethylbenzo[b]thiophene series: a structure-activity evaluation study” (2004)
Values after ≈ are worked out from the molar mass of the structure shown. Active and inactive are the calls of the source. The rule behind the calls is not given here.

What was measured:
Candida albicans [1] = assay: Minimal inhibitory concentration against Candida albicans; type: functional
Bacillus subtilis [2] = assay: Minimal inhibitory concentration against Bacillus subtilis; type: functional
Candida albicans [3] = assay: inhibition of Candida albicans was measured by zone diameter; type: functional
Bacillus cereus [4] = assay: Minimal inhibitory concentration against Bacillus cereus; type: functional
Pseudomonas aeruginosa [5] = assay: Minimal inhibitory concentration against Pseudomonas aeruginosa; type: functional
Bacillus cereus [6] = assay: inhibition of Bacillus cereus was measured by zone diameter; type: functional
Bacillus subtilis [7] = assay: inhibition of Bacillus subtilis was measured by zone diameter; type: functional
Pseudomonas aeruginosa [8] = assay: inhibition of Pseudomonas aeruginosa was measured by zone diameter; type: functional
Escherichia coli [9] = assay: Minimal inhibitory concentration against Escherichia coli; Not active; type: functional, organism-based
Bacillus cereus [10] = assay: Minimal inhibitory concentration against Bacillus cereus (CECT 148) strain; Not active; type: functional, organism-based
Pseudomonas aeruginosa [11] = assay: Minimal inhibitory concentration against Pseudomonas aeruginosa (CECT 108) strain; Not active; type: functional, organism-based
Bacillus subtilis [12] = assay: Minimal inhibitory concentration against Bacillus subtilis (CECT 498) strain; Not active; type: functional, organism-based
Escherichia coli [13] = assay: Minimal inhibitory concentration against Escherichia coli (CECT 101) strain; Not active; type: functional, organism-based
Candida albicans [14] = assay: Minimal inhibitory concentration against Candida albicans (CECT 1394) strain; Not active; type: functional, organism-based
Escherichia coli [15] = assay: Diameter of the inhibition zone of Escherichia coli upon administration of compound; type: functional
Escherichia coli [16] = assay: Minimal inhibitory concentration against Escherichia coli; type: functional
Pseudomonas aeruginosa [17] = assay: Minimal inhibitory concentration against Pseudomonas aeruginosa; Not active; type: functional, organism-based
Candida albicans [18] = assay: Minimal inhibitory concentration against Candida albicans; Not active; type: functional, organism-based
Escherichia coli [19] = assay: inhibition of Escherichia coli was measured by zone diameter; type: functional

Q: How did the MIC (Candida albicans [1]) turn out when `COc1ccc(Nc2cc3sc(C)c(C)c3cc2C)cc1OC` was run?
A: 25 µg/mL (≈ 76.3 µM)

Q: What about the MIC (Bacillus subtilis [2]) of the same compound?
A: 200 µg/mL (≈ 611 µM)

Q: And the Inhibition (Candida albicans [3])?
A: 8 mm

Q: And the MIC (Bacillus cereus [4])?
A: 200 µg/mL (≈ 611 µM)

Q: And the MIC (Pseudomonas aeruginosa [5])?
A: 1000 µg/mL (≈ 3050 µM)

Q: And the Inhibition (Bacillus cereus [6])?
A: 24 mm

Q: And the Inhibition (Bacillus subtilis [7])?
A: 10 mm

Q: What about the Inhibition (Pseudomonas aeruginosa [8]) of the same compound?
A: 10 mm

Q: What about the MIC (Escherichia coli [9]) of the same compound?
A: inactive

Q: Which MIC (Bacillus cereus [10]) does the source give for `Cc1ccc2sc(C)c(C)c2c1` here?
A: inactive

Q: And the MIC (Pseudomonas aeruginosa [11])?
A: inactive

Q: And the MIC (Bacillus subtilis [12])?
A: inactive

Q: What about the MIC (Escherichia coli [13]) of the same compound?
A: inactive

Q: What about the MIC (Candida albicans [14]) of the same compound?
A: inactive

Q: Which MIC (Bacillus cereus [4]) does the source give for `O=C(N[C@H](CO)[C@H](O)c1ccc([N+](=O)[O-])cc1)C(Cl)Cl` [CHLORAMPHENICOL] here?
A: 3.13 µg/mL (≈ 9.69 µM)

Q: And the Inhibition (Bacillus cereus [6])?
A: 8 mm

Q: Which results are given for `COc1ccc(Nc2cc3sc(C)c(C)c3cc2C)cc1`?
A: Inhibition (Escherichia coli [15]): 4 mm; MIC (Candida albicans [1]): 12.5 µg/mL (≈ 42 µM); MIC (Bacillus subtilis [2]): 50 µg/mL (≈ 168 µM); Inhibition (Candida albicans [3]): 6 mm; MIC (Escherichia coli [16]): 1000 µg/mL (≈ 3360 µM); MIC (Bacillus cereus [4]): 100 µg/mL (≈ 336 µM); MIC (Pseudomonas aeruginosa [5]): 1000 µg/mL (≈ 3360 µM); Inhibition (Bacillus cereus [6]): 4 mm; Inhibition (Bacillus subtilis [7]): 19 mm; Inhibition (Pseudomonas aeruginosa [8]): 8 mm

Q: Which Inhibition (Escherichia coli [15]) does the source give for `Cc1cc2c(C)c(C)sc2cc1Nc1ccccc1` here?
A: 4 mm

Q: What about the MIC (Bacillus subtilis [2]) of the same compound?
A: 200 µg/mL (≈ 748 µM)

Q: What about the MIC (Escherichia coli [16]) of the same compound?
A: 200 µg/mL (≈ 748 µM)

Q: What about the MIC (Bacillus cereus [4]) of the same compound?
A: 200 µg/mL (≈ 748 µM)

Q: What about the MIC (Pseudomonas aeruginosa [5]) of the same compound?
A: 200 µg/mL (≈ 748 µM)

Q: And the Inhibition (Bacillus cereus [6])?
A: 18 mm

Q: And the Inhibition (Bacillus subtilis [7])?
A: 8 mm

Q: And the Inhibition (Pseudomonas aeruginosa [8])?
A: 16 mm

Q: Which MIC (Candida albicans [1]) does the source give for `Cc1cc2c(C)c(C)sc2cc1N` here?
A: 1000 µg/mL (≈ 5230 µM)

Q: What about the MIC (Bacillus subtilis [2]) of the same compound?
A: 500 µg/mL (≈ 2610 µM)

Q: What about the Inhibition (Candida albicans [3]) of the same compound?
A: 13 mm

Q: And the MIC (Bacillus cereus [4])?
A: 500 µg/mL (≈ 2610 µM)

Q: And the Inhibition (Bacillus cereus [6])?
A: 10 mm

Q: What about the MIC (Pseudomonas aeruginosa [17]) of the same compound?
A: inactive

Q: What about the Inhibition (Bacillus subtilis [7]) of the same compound?
A: 17 mm

Q: What about the MIC (Escherichia coli [9]) of the same compound?
A: inactive

Q: Which MIC (Bacillus subtilis [2]) does the source give for `Cc1cc2c(C)c(C)sc2cc1Br` here?
A: 500 µg/mL (≈ 1960 µM)

Q: And the MIC (Bacillus cereus [4])?
A: 1000 µg/mL (≈ 3920 µM)

Q: What about the Inhibition (Bacillus cereus [6]) of the same compound?
A: 12 mm

Q: And the MIC (Candida albicans [18])?
A: inactive

Q: What about the MIC (Pseudomonas aeruginosa [17]) of the same compound?
A: inactive

Q: What about the Inhibition (Bacillus subtilis [7]) of the same compound?
A: 18 mm

Q: And the MIC (Escherichia coli [9])?
A: inactive

Q: How did the MIC (Bacillus subtilis [2]) turn out when `CC1(C)S[C@@H]2[C@H](NC(=O)[C@H](N)c3ccccc3)C(=O)N2[C@H]1C(=O)O` [AMPICILLIN] was run?
A: 12.5 µg/mL (≈ 35.8 µM)

Q: What about the MIC (Escherichia coli [16]) of the same compound?
A: 6.25 µg/mL (≈ 17.9 µM)

Q: What about the MIC (Bacillus cereus [4]) of the same compound?
A: 3.13 µg/mL (≈ 8.96 µM)

Q: What about the MIC (Pseudomonas aeruginosa [5]) of the same compound?
A: 6.25 µg/mL (≈ 17.9 µM)

Q: What about the Inhibition (Bacillus cereus [6]) of the same compound?
A: 13 mm

Q: And the Inhibition (Escherichia coli [19])?
A: 15 mm

Q: And the Inhibition (Bacillus subtilis [7])?
A: 10 mm

Q: What about the Inhibition (Pseudomonas aeruginosa [8]) of the same compound?
A: 12 mm

Q: How did the MIC (Bacillus subtilis [2]) turn out when `Cc1cc2c(C)c(C)sc2cc1Nc1ccc(F)cc1` was run?
A: 200 µg/mL (≈ 701 µM)

Q: And the MIC (Bacillus cereus [4])?
A: 200 µg/mL (≈ 701 µM)

Q: What about the Inhibition (Bacillus cereus [6]) of the same compound?
A: 12 mm

Q: And the MIC (Pseudomonas aeruginosa [17])?
A: inactive

Q: What about the Inhibition (Bacillus subtilis [7]) of the same compound?
A: 10 mm

Q: What about the MIC (Escherichia coli [9]) of the same compound?
A: inactive

Q: For `Cc1cc2c(C)c(C)sc2cc1Nc1ccccc1F`, which MIC (Bacillus subtilis [2]) is on record?
A: 50 µg/mL (≈ 175 µM)

Q: And the MIC (Bacillus cereus [4])?
A: 200 µg/mL (≈ 701 µM)

Q: And the Inhibition (Bacillus cereus [6])?
A: 9 mm

Q: What about the Inhibition (Bacillus subtilis [7]) of the same compound?
A: 8 mm

Q: And the MIC (Escherichia coli [9])?
A: inactive
